According to patent publication US4062956A, “Substituted 2-(2-hydroxyethyl)tetrahydro-1,4 oxazines and quaternary salts thereof useful for treating spasmodic syndromes” (Centre Europeen de Recherches Mauvernay, priority 1975, dated 1977):

Experiments:
[1] = test system: smooth muscle spasms induced by Ba^++ ions (ileum of the guinea pig); experiment: In vitro antagonism of Ba^++-induced smooth muscle spasm, isolated ileum of the guinea pig (technique of MAGNUS); conditions: agonist Ba^++, oxygen Tyrode solution, 30° C
Description: (§1) The pharmacological studies of the compounds according to the invention were directed essentially to the elucidation of the antispasmodic potentialities of the cations, particularly at the level of smooth muscle spasms induced by acetylcholine, histamine and Ba^++ ions. […] The isolated organs were kept alive in a thermostatic oxygen Tyrode solution at 30° C and their contractions were recorded.

[2] = target: T1, smooth muscle spasms induced by histamine (ileum of the guinea pig) (Cavia porcellus, UniProt P31389); experiment: In vitro antagonism of histamine-induced smooth muscle spasm, isolated ileum of the guinea pig (technique of MAGNUS); conditions: agonist histamine, oxygen Tyrode solution, 30° C; for Kb: read-out: pA2 (converted)
T1 construct: The isolated organs were kept alive in a thermostatic oxygen Tyrode solution at 30° C; from tissue; host or cells: isolated guinea pig ileum
T1 sequence (P31389 whole entry): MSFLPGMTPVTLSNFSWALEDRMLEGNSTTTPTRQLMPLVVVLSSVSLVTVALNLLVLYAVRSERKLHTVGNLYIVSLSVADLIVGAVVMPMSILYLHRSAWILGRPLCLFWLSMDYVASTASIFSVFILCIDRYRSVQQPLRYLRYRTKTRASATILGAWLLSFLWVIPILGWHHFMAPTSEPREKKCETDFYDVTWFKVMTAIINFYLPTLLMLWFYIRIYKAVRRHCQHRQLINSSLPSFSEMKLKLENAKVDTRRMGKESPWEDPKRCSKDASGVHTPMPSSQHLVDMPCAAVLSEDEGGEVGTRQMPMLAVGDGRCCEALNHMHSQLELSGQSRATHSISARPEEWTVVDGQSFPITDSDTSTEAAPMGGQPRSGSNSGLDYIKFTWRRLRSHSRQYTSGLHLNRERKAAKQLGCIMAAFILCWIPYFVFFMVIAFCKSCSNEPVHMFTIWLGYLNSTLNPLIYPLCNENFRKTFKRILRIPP
Description: The pharmacological studies of the compounds according to the invention were directed essentially to the elucidation of the antispasmodic potentialities of the cations, particularly at the level of smooth muscle spasms induced by acetylcholine, histamine and Ba^++ ions. These investigations were carried out in vitro according to the technique of MAGNUS (Pflug. Arch. Ges. Physiol. 1904, 102, 349, and 1904, 103, 515 and 525) by using as biological indicators the jejunum of the rat for the first agonist and the ileum of the guinea pig for the two other agonists. The isolated organs were kept alive in a thermostatic oxygen Tyrode solution at 30° C and their contractions were recorded.
The response curve line as a function of the dose enabled the calculation of the affinity parameters (pA2 and pD'2) of the compounds according to the invention for the different types of receptor (VAN ROSSUM J.M. - Arch. Int. Pharmacodyn. 1963, 143, 299 -330).

[3] = test system: smooth muscle spasms induced by acetylcholine, histamine and Ba^++ ions; experiment: Type of antagonist exerted, overall from the isolated organ tests (acetylcholine, histamine, Ba^++); design: species or system rat; guinea pig; conditions: for TYPE OF ANTAGONIST EXERTED: Table I, over the three agonists; for mechanism and intensity of action compared with Tiemonium and papaverine: interpretation of Table I by principles of molecular pharmacology (ARIENS)
Description: as §1

[4] = target: T2, smooth muscle spasms induced by acetylcholine (jejunum of the rat) (Rattus norvegicus, UniProt P08483); experiment: In vitro antagonism of acetylcholine-induced smooth muscle spasm, isolated jejunum of the rat (technique of MAGNUS); conditions: agonist acetylcholine, oxygen Tyrode solution, 30° C; for Kb: read-out: pA2 (converted)
T2 construct: The isolated organs were kept alive in a thermostatic oxygen Tyrode solution at 30° C; from tissue; host or cells: isolated rat jejunum
T2 sequence (P08483 whole entry): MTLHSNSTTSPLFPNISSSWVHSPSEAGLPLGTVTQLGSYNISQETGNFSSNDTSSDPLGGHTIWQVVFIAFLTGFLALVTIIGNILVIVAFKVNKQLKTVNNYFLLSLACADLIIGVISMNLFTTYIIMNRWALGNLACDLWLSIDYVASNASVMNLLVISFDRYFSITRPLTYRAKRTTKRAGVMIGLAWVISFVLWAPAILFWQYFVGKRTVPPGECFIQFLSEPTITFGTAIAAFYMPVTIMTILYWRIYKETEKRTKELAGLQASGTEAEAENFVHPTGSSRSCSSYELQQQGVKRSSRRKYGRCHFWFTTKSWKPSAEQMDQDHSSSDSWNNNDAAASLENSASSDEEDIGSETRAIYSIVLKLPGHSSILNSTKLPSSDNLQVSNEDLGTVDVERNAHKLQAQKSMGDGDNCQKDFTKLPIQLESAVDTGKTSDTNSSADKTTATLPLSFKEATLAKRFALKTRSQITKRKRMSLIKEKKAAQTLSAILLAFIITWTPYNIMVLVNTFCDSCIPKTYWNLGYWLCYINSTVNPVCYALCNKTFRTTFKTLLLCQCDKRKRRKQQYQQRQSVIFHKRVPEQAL
Description: as §1

[5] = test system: smooth muscle spasms induced by acetylcholine (jejunum of the rat); experiment: as above; conditions: agonist acetylcholine, oxygen Tyrode solution, 30° C
Description: as §1

| Kb [2] [µM] | Kb [4] [µM] | pA2 [2] | pA2 [4] | Molecule | pA2 [1] | TYPE OF ANTAGONIST EXERTED [3] | mechanism and intensity of action compared with Tiemonium and papaverine [3] | pD'2 [1] | pD'2 [2] | pD'2 [5] |
| --- | --- | --- | --- | --- | --- | --- | --- | --- | --- | --- |
| 6.31 | 0.2 |  |  | C[N+]1(C)CCOC(CC(O)(c2ccccc2)c2ccccc2)C1 (centres unmarked) [Compound 2] | 4.90 | Competitive | great similarity of mechanism and intensity of action between compound no 2 and Tiemonium |  |  |  |
| 10 | 3.47 |  |  | C[N+]1(C)CCOC(CC(O)(c2ccc(F)cc2)c2ccc(F)cc2)C1 (centres unmarked) [Compound 7] | 5.87 | Dualist | a mechanism of action which brings into play at the same time the competitive mechanism of Tiemonium and the non-competitive mechanism of papaverine | 4.04 | 3.70 | 3.21 |
|  |  |  |  | COc1ccc(Cc2nccc3cc(OC)c(OC)cc23)cc1OC [Papaverine, papaverine, reference compound] |  |  |  | 4.78 | 4.98 | 5.03 |
|  |  | 5.21 | 7 | Tiemonium [reference compound] | 4.95 | Competitive |  |  |  |  |
